Source: US20200179369A1, “TREATMENT OF DIABETIC NEPHROPATHY” (TAKEDA GMBH, priority 2015, published 2020)

Experiments:
[1] = test system: uninephrectomized db/db mice; assay: Diabetic nephropathy in uninephrectomized db/db mice, 8 week treatment starting 4 weeks after the uninephrectomy; assay type: in vivo; conditions: 8 weeks starting 4 weeks after uninephrectomy
Description: Male 5-week-old BKS.Cg-+Lepr^db/+Lepr^db (db/db) mice were purchased from CLEA Japan, Inc. All mice were fed with a standard diet (CE-2, CLEA Japan, Inc.) and tap water ad libitum.
Compound A was obtained from Takeda GmbH, Konstanz, Germany. Irbesartan was purchased from LKT Laboratories, Inc (USA).
In 6 week old male db/db mice an unilateral nephrectomy was performed. Under the anesthesia with isoflurane inhalation, the right kidney was removed from the mice. After 4-week recovery period, blood samples were obtained by the puncture of facial vein and blood level of glycosylated hemoglobin (GHb) was measured by automated HPLC-based GHb analyzer (HLC-723 G8, TOSOH, Japan). After the separation of plasma samples by centrifugation, also plasma levels of glucose (PG) were measured by Autoanalyzer 7180 (Hitachi, Japan). Urine samples were collected for a 8 h time-period using metabolic cages and urine creatinine level was measured by Autoanalyzer 7180. After desaltation of urine samples with PD MiniTrap G-25 column (GE healthcare, UK), urinary levels of albumin were measured by ELISA, and urinary albumin/creatinine ratio (UACR) was calculated.
Compound A (1, 3 and 10 mg/kg, QD), roflumilast (3 mg/kg, QD) and irbesartan (50 mg/kg, QD) were suspended in 0.5% methyl cellulose solution and orally administered to mice for 8 weeks starting 4 weeks after the uninephrectomy.
At the end of the 8 weeks once daily administration blood, plasma and urine samples were obtained according to the same methods as described above. GHb, PG, urinary creatinine and albumin were measured and UACR was calculated. Body weight (BW) was measured every week during the treatment.
For evaluation of the effects of Compound A, statistical differences between vehicle- and Compound A treated groups were analyzed with two-tailed Williams' test for PG and BW and two-tailed Shirley-Williams' test for UACR and GHb. The P-values less than 0.05 were considered statistically significant in two-tailed Williams' test or Shirley-Williams' test.
For roflumilast and irbesartan, statistical differences between vehicle- and compounds-treated groups were analyzed with Student's t-test for GHb, PG and BW and Welch test for UACR. The P-values less than 0.05 were considered statistically significant in Student's t-test and Welch test.

[2] = test system: uninephrectomized db/db mice; assay: Diabetic nephropathy in uninephrectomized db/db mice, 8 week treatment starting 12 weeks after the uninephrectomy; assay type: in vivo; conditions: 8 weeks starting 12 weeks after uninephrectomy
Description: The experimental protocol is similar to the experimental protocol described above with the exception that the 8 week treatment with Compound A or irbesartan was started not already at 4 weeks after the uninephrectomy, but only 12 weeks after the uninephrectomy (i.e. when the increase of urinary albumin/creatinine ratio (UACR) is already in a much more advanced stage). Roflumilast was not used as a comparator in this experiment.
Compound A (1, 3 and 10 mg/kg, QD) and irbesartan (50 and 100 mg/kg, QD) were suspended in 0.5% methyl cellulose solution and orally administered to mice for 8 weeks starting 12 weeks after the uninephrectomy.
For evaluation of the effects of Compound A, statistical differences between vehicle- and Compound A treated groups were analyzed with one-tailed Williams' test for GHB, PG and BW and one-tailed Shirley-Williams' test for UACR. For irbesartan, statistical differences between vehicle- and irbesartan treated groups were analyzed with one-tailed Williams' test for UACR, GHb, PG and BW. The P-values less than 0.025 were considered statistically significant in one-tailed Williams' test or one-tailed Shirley-Williams' test.

`O=C(Nc1c(Cl)cncc1Cl)c1ccc(OC(F)F)c(OCC2CC2)c1` [roflumilast, reference compound] was tested, and the “effect on blood level of glycosylated hemoglobin (GHb)” value ([1]; 3 mg/kg QD oral) was “Almost no effect compared to the vehicle group”, the “effect on increase of urinary albumin/creatinine ratio (UACR)” value ([1]; 3 mg/kg QD oral) was “mild and was not statistically significant” and the “effect on plasma levels of glucose (PG)” value ([1]; 3 mg/kg QD oral) was “Almost no effect compared to the vehicle group”.
With `CCCCC1=NC2(CCCC2)C(=O)N1Cc1ccc(-c2ccccc2-c2nnn[nH]2)cc1` [irbesartan, 2-butyl-3-[p-(o-1H-tetrazol-5-ylphenyl)benzyl]-1,3-diazaspiro[4.4]non-1-en-4-one, reference compound] the “effect on urinary albumin/creatinine ratio (UACR)” value ([2]; 50 mg/kg QD oral) was “significant suppression on increase in UACR”, the “effect on urinary albumin/creatinine ratio (UACR)” value ([2]; 100 mg/kg QD oral) was “significant suppression on increase in UACR” and the “effect on body weight (BW)” value ([2]; 50 and 100 mg/kg QD oral) was “Neither Compound A nor Irbesartan affected the body weight”. For the same molecule, the “effect on glucose plasma levels (PG)” value ([2]; 50 and 100 mg/kg QD oral) was “did not show inhibitory effects”, the “effect on glycosylated hemoglobin (GHb)” value ([2]; 50 and 100 mg/kg QD oral) was “did not show inhibitory effects” and the “effect on blood level of glycosylated hemoglobin (GHb)” value ([1]; 50 mg/kg QD oral) was “Almost no effect compared to the vehicle group”. The “effect on increase of urinary albumin/creatinine ratio (UACR)” value ([1]; 50 mg/kg QD oral) was “tended to suppress the increase of UACR, but its effect was not statistically significant” and the “effect on plasma levels of glucose (PG)” value ([1]; 50 mg/kg QD oral) was “Almost no effect compared to the vehicle group”.
